From ChEMBL document CHEMBL1140499, “Novel heparin/heparan sulfate mimics as inhibitors of HGF/SF-induced MET activation” (2007)
Active and inactive are the calls of the source. The rule behind the calls is not given here.

What was measured:
[1] = organism: Cricetulus griseus; assay: Inhibition of HGF/SF-induced MET receptor activation assessed as ERK activation at 100 ug/mL by Western blot
[2] = organism: Cricetulus griseus; assay: Inhibition of FGF2-induced FGF receptor activation assessed as ERK activation at 100 ug/mL by Western blot
[3] = system: MDCK; assay: Inhibition of HGF/SF-induced migration of MDCK cells at 100 ug/mL after 4 hrs; type: functional; conditions: Canis lupus familiaris

Activity [1] | Activity [2] | SMILES | inhibition at 100 µg/mL [3] [%]
Active | inactive | O=C(O)c1cc(OC[C@@H](COS(=O)(=O)O)OS(=O)(=O)O)ccc1OCCCCOS(=O)(=O)O | 70
Active | inactive | O=C(O)c1cc(OC[C@@H](COS(=O)(=O)O)OS(=O)(=O)O)ccc1OC[C@H](COS(=O)(=O)O)OS(=O)(=O)O | 57
